One assay deals with T1, 5-HT2C receptor (Rattus norvegicus, UniProt P08909).
T1 sequence (P08909 33-460): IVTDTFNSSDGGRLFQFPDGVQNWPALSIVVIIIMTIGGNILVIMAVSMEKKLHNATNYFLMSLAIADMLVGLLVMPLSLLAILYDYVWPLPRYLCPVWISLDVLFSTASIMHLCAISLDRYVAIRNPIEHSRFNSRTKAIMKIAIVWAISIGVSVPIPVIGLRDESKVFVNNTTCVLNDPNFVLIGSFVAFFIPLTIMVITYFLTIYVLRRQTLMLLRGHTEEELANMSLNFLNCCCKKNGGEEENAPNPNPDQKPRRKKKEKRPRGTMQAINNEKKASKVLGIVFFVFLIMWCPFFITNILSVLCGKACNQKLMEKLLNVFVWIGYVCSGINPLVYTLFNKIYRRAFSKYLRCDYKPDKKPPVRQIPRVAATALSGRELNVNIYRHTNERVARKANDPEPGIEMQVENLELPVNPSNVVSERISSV
The assay is described as follows: [3H]-5-HT binding assay (method a), affinity to the 5-HT2C receptor. More on the design: expressed in transfected cells. As to conditions: Ki from IC50 in nM; for Ki: read-out: Pki (Pki=-log10 Ki), 5-HT2C, Method a (converted). On the procedure: (§1) The binding of compounds of formula I in accordance with the invention to selected serotonin […] was determined in vitro by standard methods. The preparations were investigated in accordance with the tests given hereinafter:
a) Affinity to the 5-HT2C receptor in accordance with the [3H]-5-HT binding assay according to the method of S.J. Peroutka et al., Brain Research 584, 191-196 (1992).
(§2) The Pki values (Pki=-log10 Ki) of the test substances are given. The Ki value is defined by the following formula: [formula] with the IC50 values being those concentrations of test compounds in nM at which 50% of the receptor-bonded ligands are displaced. [L] is the ligand concentration and the KD value is the dissocation constant of the ligand.

In a further assay the target is T2, 5-HT2A receptor (Homo sapiens, UniProt P28223).
T2 construct: expressed in transfected cells
The assay is described as follows: [3H]-DOB binding assay (method b), affinity to the 5-HT2A receptor. The conditions noted are these: Ki from IC50 in nM; for Ki: read-out: Pki (Pki=-log10 Ki), 5-HT2A, Method b (converted). On the procedure: as §1
b) Affinity to the 5-HT2A receptor in accordance with the [3H]- DOB binding assay according to the method of T. Branchek et. al., Molecular Pharmacology 38, 604-609 (1990).
as §2

T2 sequence (P28223 whole entry): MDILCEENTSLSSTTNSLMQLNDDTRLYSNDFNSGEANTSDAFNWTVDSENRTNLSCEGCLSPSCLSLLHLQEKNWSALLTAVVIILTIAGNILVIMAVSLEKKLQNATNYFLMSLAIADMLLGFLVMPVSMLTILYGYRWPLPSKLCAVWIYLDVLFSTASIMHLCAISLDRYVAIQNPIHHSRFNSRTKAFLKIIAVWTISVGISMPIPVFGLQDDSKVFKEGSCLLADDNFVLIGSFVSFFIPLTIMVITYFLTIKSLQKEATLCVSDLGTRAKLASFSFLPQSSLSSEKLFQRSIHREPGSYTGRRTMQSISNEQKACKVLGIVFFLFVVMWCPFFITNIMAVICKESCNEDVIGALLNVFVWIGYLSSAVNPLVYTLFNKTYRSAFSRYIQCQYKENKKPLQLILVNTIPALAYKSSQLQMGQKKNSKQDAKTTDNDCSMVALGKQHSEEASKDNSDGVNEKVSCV

One may read the Ki as a measure of affinity in units of concentration, obtained from inhibition or displacement. For the compound `N=C(N)c1cc2ccc3c(c2o1)OCC3` [--O--CH2 --CH2 -- H H H], the values for the inhibition constant Ki at 5-HT2C receptor and at 5-HT2A receptor were 398 nM and 3160 nM, respectively.
Turning to `N=C(N)c1cc2cc(Br)cc(Br)c2o1` [Br H Br H H], the Ki was 2000 nM on 5-HT2C receptor and 316 nM on 5-HT2A receptor.
The matching figures for `N=C(N)c1cc2cc(Cl)cc(Br)c2o1` [Br H Cl H H]: 5010 nM and 316 nM.
The matching figures for `N=C(N)c1cc2cccc(Br)c2o1` [Br H H H H]: 126 nM and 1580 nM.
With `COCc1cccc2cc(C(=N)N)oc12` [CH2 --O-Me H H H H], the Ki on 5-HT2C receptor is 158 nM; at 5-HT2A receptor it was 3160 nM.
The matching figures for `CSCc1cccc2cc(C(=N)N)oc12` [CH2 --S-Me H H H H]: 251 nM and 1000 nM.
For the compound `N=C(N)c1cc2cccc(O)c2o1` [CH H H H H], the “Pki (Pki=-log10 Ki), 5-HT2C, Method a” value at 5-HT2C receptor was 6.2. Moreover, the “Pki (Pki=-log10 Ki), 5-HT2A, Method b” value on 5-HT2A receptor is recorded as < 5.
On to `N=C(N)c1cc2cc(Cl)cc(Cl)c2o1` [Cl H Cl H H], for which the Ki on 5-HT2C receptor was 2510 nM; on 5-HT2A receptor, 631 nM.
On to `N=C(N)c1cc2cccc(Cl)c2o1` [Cl H H H H], for which the inhibition constant (Ki) on 5-HT2C receptor is 158 nM; on 5-HT2A receptor, 3980 nM.
In the same order, the values of `CCOc1cccc2oc(C(=N)N)cc12` [Example 2, 4-Ethoxybenzofuran-2-carboxamidine] are 158 nM and > 10000 nM.
The matching figures for `COc1cccc2cc(C(=N)N)oc12` [Example 3, 7-Methoxybenzofuran-2-carboxamidine]: 158 nM and > 10000 nM.
Take `CCOc1cccc2cc(C(=N)N)oc12` [Example 4, 7-Ethoxybenzofuran-2-carboxamidine]: the Ki on 5-HT2C receptor was 50.1 nM; on 5-HT2A receptor, > 10000 nM.
The matching figures for `N=C(N)c1cc2cc(F)ccc2o1` [Example 5, 5-Fluorobenzofuran-2-carboxamidine]: 158 nM and 2000 nM.
In the same order, the values of `CCOCc1cccc2cc(C(=N)N)oc12` [Example 7, 7-Ethoxymethylbenzofuran-2-carboxamidine] are 100 nM and 2000 nM.
With `CCCc1c(F)ccc2cc(C(=N)N)oc12` [Example 8, 6-Fluoro-7-propylbenzofuran-2-carboxamidine], the Ki on 5-HT2C receptor is 20 nM; on 5-HT2A receptor, 158 nM.
With `N=C(N)c1cc2c(F)cc(F)cc2o1` [Example 10, 4.6-Difluoro-benzofuran-2-carboxamidine], the inhibition constant (Ki) at 5-HT2C receptor was 7.94 nM; at 5-HT2A receptor, 631 nM.
The matching figures for `CCCc1ccc(F)c2cc(C(=N)N)oc12` [Example 11]: 7.94 nM and 501 nM.
In the same order, the values of `N=C(N)c1cc2c(F)ccc(Br)c2o1` [Example 12, 7-Bromo-4-fluorobenzofuran-2-carboxamidine] are > 10000 nM and > 10000 nM.
Consider `NC(=NO)c1cc2cc(F)c(F)cc2o1` [Example 13, 5,6-Difluorobenzofuran-2-carboxamidoxime], for which the Ki at 5-HT2C receptor and on 5-HT2A receptor was > 10000 nM each time.
Turning to `CCOc1cccc2cc(C(N)=NO)oc12` [Example 14, 7-Ethoxybenzofuran-2-carboxamidoxime], the Ki was 5500 nM at 5-HT2C receptor and > 10000 nM on 5-HT2A receptor.
On to `NC(=NO)c1cc2cc(F)ccc2o1` [Example 15, 5-Fluorobenzofuran-2-carboxamidoxime], for which the Ki on 5-HT2C receptor is 4270 nM; at 5-HT2A receptor it was > 10000 nM.
The matching figures for `CCOCc1cccc2cc(C(N)=NO)oc12` [Example 17, 7-Ethoxymethylbenzofuran-2-carboxamidoxime]: > 10000 nM and > 10000 nM.
In the case of `NC(=NO)c1cc2c(F)cccc2o1` [Example 18, 4-Fluorobenzofuran-2-carboxamidoxime], the Ki at 5-HT2C receptor is 79.4 nM; at 5-HT2A receptor, 2510 nM.
Turning to `N=C(N)c1cc2cccc(F)c2o1` [F H H H H], the values for the Ki at 5-HT2C receptor and on 5-HT2A receptor were 794 nM and 5010 nM, respectively.
The matching figures for `N=C(N)c1cc2ccc(Cl)cc2o1` [H Cl H H H]: 1260 nM and 5010 nM.
With `N=C(N)c1cc2cc(Cl)ccc2o1` [H H Cl H H], the Ki at 5-HT2C receptor and at 5-HT2A receptor was 1580 nM in each case.
On to `COc1cccc2oc(C(=N)N)cc12` [H H H OMe H], for which the Ki at 5-HT2C receptor is 158 nM; on 5-HT2A receptor it was 2000 nM.
As to `COc1ccc2oc(C(=N)N)cc2c1` [H H OMe H H], the Ki at 5-HT2C receptor was 2510 nM; on 5-HT2A receptor, > 10000 nM.
Consider `Cc1ccc2cc(C(=N)N)oc2c1` [H Me H H H], for which the inhibitory constant (Ki) at 5-HT2C receptor is 1000 nM; at 5-HT2A receptor it was > 10000 nM.
On to `COc1ccc2cc(C(=N)N)oc2c1` [H OMe H H H], for which the results for the Ki on 5-HT2C receptor and on 5-HT2A receptor were 631 nM and 6310 nM, respectively.
The matching figures for `Cc1cccc2cc(C(=N)N)oc12` [Me H H H H]: 398 nM and 2510 nM.
The matching figures for `N=C(N)c1cc2cccc(OC3CCCCC3)c2o1` [O-Cyclo-hex H H H H]: 631 nM and 158 nM.
In the same order, the values of `N=C(N)c1cc2cccc(OC3CCCC3)c2o1` [O-Cyclo-pent H H H H] are 501 nM and 251 nM.
Take `N=C(N)c1cc2cccc(OCc3ccccc3)c2o1` [OBn H H H H]: the Ki at 5-HT2C receptor is 63.1 nM; on 5-HT2A receptor it was 126 nM.
The matching figures for `COc1cc(Br)cc2cc(C(=N)N)oc12` [OMe H Br H H]: 126 nM and 2510 nM.
In the same order, the values of `COc1ccc(C)c2cc(C(=N)N)oc12` [OMe H H Me H] are 100 nM and 2510 nM.
In the same order, the values of `COc1cc(-c2ccccc2)cc2cc(C(=N)N)oc12` [OMe H Ph H H] are 1580 nM and 158 nM.
Take `CCCOc1cccc2cc(C(=N)N)oc12` [OPr H H H H]: the Ki on 5-HT2C receptor was 158 nM; at 5-HT2A receptor, > 10000 nM.
The matching figures for `CC(C)COc1cccc2cc(C(=N)N)oc12` [Oi-Bu H H H H]: 2000 nM and 1000 nM.
The matching figures for `CC(C)CCOc1cccc2cc(C(=N)N)oc12` [Oi-Pent H H H H]: 501 nM and 158 nM.
For the compound `CC(C)Oc1cccc2cc(C(=N)N)oc12` [Oi-Pr H H H H], the figures for the inhibition constant (Ki) at 5-HT2C receptor and on 5-HT2A receptor were 200 nM and 1000 nM, respectively.
In the same order, the values of `N=C(N)c1cc2cccc(-c3ccccc3)c2o1` [Ph H H H H] are 251 nM and 158 nM.
In the same order, the values of `CSc1cccc2cc(C(=N)N)oc12` [SMe H H H H] are 79.4 nM and 1000 nM.
The matching figures for `CC(C)c1cccc2cc(C(=N)N)oc12` [i-Prop H H H H]: 63.1 nM and 794 nM.
For `CCCc1cccc2cc(C(=N)N)oc12` [n-Pr H H H H], the Ki on 5-HT2C receptor was 79.4 nM; on 5-HT2A receptor, 1000 nM.

The values are drawn from US5955495A, “Method of treating diseases of the CNS” (Hoffmann-La Roche Inc., priority 1997, dated 1999).
